In ChEMBL document CHEMBL1150777, “Chemically induced dimerization of human nonpancreatic secretory phospholipase A2 by bis-indole derivatives” (J Med Chem, 2008):

target: T1, Phospholipase A2, membrane associated (Homo sapiens, UniProt P14555); experiment: Inhibition of human nonpancreatic secretory phospholipase A2
T1 sequence (P14555 whole entry): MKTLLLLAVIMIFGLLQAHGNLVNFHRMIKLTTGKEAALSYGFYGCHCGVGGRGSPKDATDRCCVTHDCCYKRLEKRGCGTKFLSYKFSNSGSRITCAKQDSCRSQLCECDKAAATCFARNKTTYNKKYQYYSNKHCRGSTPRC

| IC50 [nM] | Compound |
| --- | --- |
| 24 | COc1ccc2c(c1)c(CC(N)=O)c(C)n2Cc1ccccc1OCCCCCOc1ccccc1Cn1c(C)c(CC(N)=O)c2cc(OC)ccc21 |
| 60 | COc1ccc2c(c1)c(CC(N)=O)c(C)n2Cc1ccccc1OCCCCOc1ccccc1Cn1c(C)c(CC(N)=O)c2cc(OC)ccc21 |
| 49 | COc1ccc2c(c1)c(CC(N)=O)c(C)n2Cc1ccccc1OCCCCCCCCCOc1ccccc1Cn1c(C)c(CC(N)=O)c2cc(OC)ccc21 |
| 58 | COc1ccc2c(c1)c(CC(N)=O)c(C)n2Cc1ccccc1OCCCCCCCCOc1ccccc1Cn1c(C)c(CC(N)=O)c2cc(OC)ccc21 |
| 48 | COc1ccc2c(c1)c(CC(N)=O)c(C)n2Cc1ccccc1OCCCOc1ccccc1Cn1c(C)c(CC(N)=O)c2cc(OC)ccc21 |
| 120 | CCCCCOc1ccccc1Cn1c(C)c(CC(N)=O)c2cc(OC)ccc21 |

Continued, compound first:

| Compound | IC50 [nM] |
| --- | --- |
| COc1ccc2c(c1)c(CC(N)=O)c(C)n2Cc1ccccc1 | 540 |
| COc1ccc2c(c1)c(CC(N)=O)c(C)n2Cc1ccccc1OCCCCCCCOc1ccccc1Cn1c(C)c(CC(N)=O)c2cc(OC)ccc21 | 52 |
| COc1ccc2c(c1)c(CC(N)=O)c(C)n2Cc1ccc(OCCCCCOc2ccc(Cn3c(C)c(CC(N)=O)c4cc(OC)ccc43)cc2)cc1 | 86 |
| COc1ccc2c(c1)c(CC(N)=O)c(C)n2Cc1cccc(OCCCCCOc2cccc(Cn3c(C)c(CC(N)=O)c4cc(OC)ccc43)c2)c1 | 76 |
| COc1ccc2c(c1)c(CC(N)=O)c(C)n2Cc1ccccc1OCCCCCCOc1ccccc1Cn1c(C)c(CC(N)=O)c2cc(OC)ccc21 | 39 |
